In patent US10961252B2, “Quinazoline and indole compounds to treat medical disorders” (Achillion Pharmaceuticals, Inc., priority 2016, dated 2021):
Structures can show the parent of a compound that is named as a salt.

What follows are compounds tested on Normal Human Serum (NHS) (assay: Hemolysis assay: lysis of rabbit erythrocytes (RE) by Normal Human Serum (NHS)). Conditions: rabbit erythrocyte, 0.5 h, Table 1, hemolysis of rabbit erythrocytes with NHS, GVB0 plus 10 mM Mg-EGTA, 37° C., read-out: IC50.
Format: cell-based
Method: The hemolysis assay was previously described by G. Ruiz-Gomez, et al., J. Med. Chem. (2009) 52: 6042-6052. Prior to the assay, the optimum concentration of Normal Human Serum (NHS) needed to achieve 100% lysis of rabbit erythrocytes (RE) is determined by titration. In the assay, NHS (Complement Technology) is diluted in GVB^0 Buffer (0.1% gelatin, 5 mM Veronal, 145 mM NaCl, 0.025% NaN3, pH 7.3, Complement Technology) plus 10 mM Mg-EGTA and incubated with test compound at various concentrations for 15 minutes at 37° C. RE (Complement Technology) freshly suspended in GVB^0 plus 10 mM Mg-EGTA are added to a final concentration of 1×10^8 cells/mL and reactions are incubated for 30 minutes at 37° C. Positive control reactions (100% lysis) consist of GVB^0 plus 10 mM Mg-EGTA with NHS and RE but without test compound; negative control reactions (0% lysis) consist of GVB^0 plus 10 mM Mg-EGTA with RE only. Samples are centrifuged at 2000 g for 3 minutes and supernatants collected. Absorbance at 405 nm (A405) is recorded using a microplate spectrophotometer. IC50 values are calculated by nonlinear regression from the percentage of hemolysis as a function of test compound concentration.

Going from CCN[C@H](CC(=O)N1CC2CCC(C1)N2c1nc(N)c2cc(OC)c(OC)c(F)c2n1)c1ccc(F)cc1 [Compound 13, (3R)-1-(8-(4-Amino-8-fluoro-6,7-dimethoxyquinazolin-2-yl)-3,8-diazabicyclo[3.2.1]octan-3-yl)-3-(ethylamino)-3-(4-fluorophenyl)propan-1-one] to CCN[C@H](CC(=O)N1CC2CCC1CN2c1nc(N)c2cc(OC)c(OC)c(F)c2n1)c1ccc(F)cc1 (stereo partly drawn) [Compound 15, (3R)-1-(5-(4-Amino-8-fluoro-6,7-dimethoxyquinazolin-2-yl)-2,5-diazabicyclo[2.2.2]octan-2-yl)-3-(ethylamino)-3-(4-fluorophenyl)propan-1-one], the IC50 rises from under 1000 nM to over 10000 nM. The first is the more potent here.

In the case of COc1cc2c(N)nc(N3CC4CCC(C3)N4C(=O)C=Cc3ccc(F)cc3)nc2c(F)c1OC [Compound 14, 1-(3-(4-Amino-8-fluoro-6,7-dimethoxyquinazolin-2-yl)-3,8-diazabicyclo[3.2.1]octan-8-yl)-3-(4-fluorophenyl)prop-2-en-1-one], the IC50 is reported as over 10000 nM.

Same assay, conditions: rabbit erythrocyte, 0.5 h, Table 2, hemolysis of rabbit erythrocytes with NHS, GVB0 plus 10 mM Mg-EGTA, 37° C., read-out: IC50 (Stars)

CCN[C@H](CC(=O)N1CC2CCC(C1)N2c1nc(N)c2cc(OC)c(OC)c(F)c2n1)c1ccc(C#N)cc1 [Compound 16, 4-((1R)-3-(8-(4-Amino-8-fluoro-6,7-dimethoxyquinazolin-2-yl)-3,8-diazabicyclo[3.2.1]octan-3-yl)-1-(ethylamino)-3-oxopropyl)benzonitrile] and CCN[C@H](CC(=O)N1CC=C(c2nc(N)c3cc(OC)c(OC)c(F)c3n2)CC1)c1ccc(C#N)cc1 [Compound 17, (R)-4-(3-(4-(4-Amino-8-fluoro-6,7-dimethoxyquinazolin-2-yl)-3,6-dihydropyridin-1(2H)-yl)-1-(ethylamino)-3-oxopropyl)benzonitrile] cannot be ordered by IC50: under 1000 nM for the first, under 1000 nM for the second.

Compound COc1cc2c(N)nc(C3=CCN(C(=O)C[C@@H]4C[C@@H]5CCCC[C@@H]5N4)CC3)nc2c(F)c1OC [Compound 18, 1-(4-(4-Amino-8-fluoro-6,7-dimethoxyquinazolin-2-yl)-3,6-dihydropyridin-1(2H)-yl)-2-((2S,3aS,7aS)-octahydro-1H-indol-2-yl)ethan-1-one TFA salt] has an IC50 of under 1000 nM.

Same assay, conditions: rabbit erythrocyte, 0.5 h, Table 3, hemolysis of rabbit erythrocytes with NHS, GVB0 plus 10 mM Mg-EGTA, 37° C., read-out: IC50 (Stars)

Going from COc1cc(C)c2[nH]ccc2c1CN1CCC(F)(F)CC1c1ccc(C(=O)O)cc1 (centres unmarked) [Compound 19, 4-(4,4-difluoro-1-((5-methoxy-7-methyl-1H-indol-4-yl)methyl)piperidin-2-yl)benzoic Acid] to COc1cc(C)c2[nH]ccc2c1CN1CCC(C)CC1c1ccc(C(=O)NO)cc1 (centres unmarked) [Compound 27, N-Hydroxy-4-(1-((5-methoxy-7-methyl-1H-indol-4-yl)methyl)-4-methylpiperidin-2-yl)benzamide], the IC50 falls from over 10000 nM to under 1000 nM. The second is the more potent here.

Going from COc1cc(C)c2[nH]ccc2c1CN1CCCC[C@H]1C1CCC(C(=O)O)CC1 (stereo partly drawn) [Compound 20, (1R,4S)-4-((S)-1-((5-Methoxy-7-methyl-1H-indol-4-yl)methyl)piperidin-2-yl) Cyclohexanecarboxylic Acid] to COc1cc(C)c2[nH]ccc2c1CN1CCC(C)CC1c1ccc(C(=O)O)c2c1CCCC2 (centres unmarked) [Compound 28, 4-(1-((5-Methoxy-7-methyl-1H-indol-4-yl)methyl)-4-methylpiperidin-2-yl)-5,6,7,8-tetrahydronaphthalene-1-carboxylic Acid], the IC50 falls from over 10000 nM to under 1000 nM. The second is the more potent here.

COc1cc(C)c2[nH]ncc2c1CN1CC[C@@H](C)C[C@H]1c1ccc(C(=O)O)cc1 [Compound 21, 4-((2S, 4R)-1-((5-Methoxy-7-methyl-1H-indazol-4-yl) Methyl)-4-methylpiperidin-2-yl) Benzoic Acid] and COc1cc(C)c2[nH]c(C)cc2c1CN1CC[C@@H](C)C[C@H]1c1ccc(C(=O)O)cc1 [Compound 24, 4-((2S, 4R)-1-((5-Methoxy-2,7-dimethyl-1H-indol-4-yl) Methyl)-4-methylpiperidin-2-yl) Benzoic Acid] cannot be ordered by IC50: over 10000 nM for the first, over 10000 nM for the second.

First: COc1cc(C)c2[nH]ccc2c1CN1CC[C@@H](C)C[C@H]1c1ccc(S(C)(=N)=O)cc1 (stereo partly drawn) [Compound 22, 5-Methoxy-7-methyl-4-(((2 S,4R)-4-methyl-2-(4-(S-methylsulfonimidoyl)phenyl)piperidin-1-yl)methyl)-1H-indole]
Second: COc1cc(C)c2[nH]ccc2c1CN1CC[C@H](C)C[C@@H]1c1ccc(S(C)(=N)=O)cc1 (stereo partly drawn) [Compound 23, 5-Methoxy-7-methyl-4-(((2R,4S)-4-methyl-2-(4-(S-methylsulfonimidoyl)phenyl)piperidin-1-yl)methyl)-1H-indole]
The IC50 of the first is lower: under 1000 nM for the first, over 10000 nM for the second. The first is the more potent here.

COc1cc(C)c2[nH]ccc2c1CN1CCC(C)CC1c1ccc(S(C)(=N)=O)cc1 (centres unmarked) [Compound 25, 5-Methoxy-7-methyl-4-((4-methyl-2-(4-(S-methylsulfonimidoyl)phenyl)piperidin-1-yl)methyl)-1H-indole] and COc1cc(C)c2[nH]ccc2c1CN1CC[C@@H](C)C[C@H]1c1ccc([S@@](C)(=N)=O)cc1 [Compound 30, 5-Methoxy-7-methyl-4-(((2S,4R)-4-methyl-2-(4-((S)—S-methylsulfonimidoyl)phenyl)piperidin-1-yl)methyl)-1H-indole] cannot be ordered by IC50: under 1000 nM for the first, under 1000 nM for the second.

COc1cc(C)c2[nH]ccc2c1CN1CCC(C)CC1c1ccc(P(=O)(O)O)cc1 (centres unmarked) [Compound 26, 4-(1-((5-Methoxy-7-methyl-1H-indol-4-yl)methyl)-4-methylpiperidin-2-yl)phenylphosphonic Acid] and COc1cc(C)c2[nH]ccc2c1CN1CC[C@@H](C)C[C@H]1c1ccc(P(=O)(O)O)cc1 [Compound 32, (4-((2S,4R)-1-((5-Methoxy-7-methyl-1H-indol-4-yl)methyl)-4-methylpiperidin-2-yl)phenyl)phosphonic Acid] cannot be ordered by IC50: under 1000 nM for the first, under 1000 nM for the second.

First: COc1cc(C)c2[nH]ccc2c1CN1CC[C@@H](C)C[C@H]1c1ccc(P(C)(=O)O)cc1 [Compound 29, 4-((2S, 4R)-1-((5-Methoxy-7-methyl-1H-indol-4-yl)methyl)-4-methylpiperidin-2-yl) Phenyl (Methyl) Phosphinic Acid]
Second: COc1cc(C)c2[nH]ccc2c1CN1CC[C@H](C)C[C@@H]1c1ccc(P(=O)(O)O)cc1 [Compound 33, 4-((2R, 4S)-1-((5-Methoxy-7-methyl-1H-indol-4-yl)methyl)-4-methylpiperidin-2-yl) Phenylphosphonic Acid]
The IC50 of the first is lower: under 1000 nM for the first, 1000 to 10000 nM for the second.

COc1cc(C)c2[nH]ccc2c1CN1CC[C@@H](C)C[C@H]1c1ccc([S@](C)(=N)=O)cc1 [Compound 31, 5-Methoxy-7-methyl-4-(((2S,4R)-4-methyl-2-(4-((R)—S-methylsulfonimidoyl)phenyl)piperidin-1-yl)methyl)-H-indole] and COc1cc(C)c2[nH]ccc2c1CN1CC[C@@H](C)C[C@H]1c1ccc(C(=O)O)c2c1CCCC2 [Compound 34, 4-((2S,4R)-1-((5-Methoxy-7-methyl-1H-indol-4-yl)methyl)-4-methylpiperidin-2-yl)-5,6,7,8-tetrahydronaphthalene-1-carboxylic Acid] cannot be ordered by IC50: under 1000 nM for the first, under 1000 nM for the second.

For COc1cc(C)c2[nH]ccc2c1CN1CC[C@@H](C)C[C@@H]1c1ccc(C(=O)O)c2c1CCCC2 [Compound 35, 4-((2R,4R)-1-((5-Methoxy-7-methyl-1H-indol-4-yl)methyl)-4-methylpiperidin-2-yl)-5,6,7,8-tetrahydronaphthalene-1-carboxylic Acid], the IC50 was over 10000 nM.
